Read-outs that look alike come from different tables or passages of the source.
Columns and labels:
A2780 cells = assay: Proliferation assay, A2780; type: cell-based, human; conditions: 72-hour exposure, Cell Titre-Glo, read-out: Inhibition of A2780 cell proliferation IC50
Protocol: Cultivated tumour cells (HeLa, human cervical tumour cells, ATCC CCL-2; NCI-H460, human non-small cell lung carcinoma cells, ATCC HTB-177; DU 145, hormone-independent human prostate carcinoma cells, ATCC HTB-81; HeLa-MaTu-ADR, multidrug-resistant human cervical carcinoma cells, EPO-GmbH Berlin; Caco-2, human colorectal carcinoma cells, ATCC HTB-37; B16F10, mouse melanoma cells, ATCC CRL-6475) were plated at a density of 5,000 cells/well (DU145, HeLa-MaTu-ADR), 3,000 cells/well (NCI-H460, HeLa), 1,500 cells/well (Caco-2), or 1,000 cells/well (B16F10) in a 96-well multititer plate in 200 μL of their respective growth medium supplemented 10% fetal calf serum. After 24 hours, the cells of one plate (zero-point plate) were stained with crystal violet (see below), while the medium of the other plates was supplemented with the test substances in various concentrations (0 μM, as well as in the range of 0.0001-10 μM; the final concentration of the solvent dimethyl sulfoxide was adjusted to 0.1%) using a Hewlett-Packard HP D300 Digital Dispenser. The cells were incubated for 4 days in the presence of test substances. Cell proliferation was determined by staining the cells with crystal violet: the cells were fixed by adding 20 μl/measuring point of an 11% glutaric aldehyde solution for 15 minutes at room temperature. After three washing cycles of the fixed cells with water, the plates were dried at room temperature. The cells were stained by adding 100 μl/measuring point of a 0.1% crystal violet solution (pH 3.0). After three washing cycles of the stained cells with water, the plates were dried at room temperature. The dye was dissolved by adding 100 μl/measuring point of a 10% acetic acid solution. The extinction was determined by photometry at a wavelength of 595 nm. The change of cell number, in percent, was calculated by normalization of the measured values to the extinction values of the zero-point plate (=0%) and the extinction of the untreated ([…]) cells (=100%). The IC50 values (inhibitory concentration at 50% of maximal effect) were determined by means of a 4 parameter fit. A2780 human ovarian carcinoma cells (ECACC #93112519) and non-adherent MOLM-13 human acute myeloid leukemia cells (DSMZ ACC 554) were seeded at a density of 3,000 cell/well (A2780) or 5,000 cells/well (MOLM-13) in a 96-well multititer plate in 150 μL of growth medium supplemented 10% fetal calf serum. After 24 hours, cell viability of one plate (zero-point plate) was determined with the Cell Titre-Glo Luminescent Cell Viability Assay (Promega), while the medium of the other plates was supplemented with the test substances in various concentrations (0 μM, as well as in the range of 0.0001-10 μM; the final concentration of the solvent dimethyl sulfoxide was adjusted to 0.1%) using a Hewlett-Packard HP D300 Digital Dispenser. Cell viability was assessed after 72-hour exposure with the Cell Titre-Glo Luminescent Cell Viability Assay (Promega). IC50 values (inhibitory concentration at 50% of maximal effect) were determined by means of a 4 parameter fit on measurement data which were normalized to vehicle (DMSO) treated cells (=100%) and measurement readings taken immediately before compound exposure (=0%).

CDK9/CycT1 = target: T1, CDK9/CycT1 (Homo sapiens, UniProt P50750); assay: CDK9/CycT1 high ATP kinase assay (TR-FRET, 2 mM ATP); type: biochemical; conditions: for IC50: 2 mM ATP, Method 1b, lower limit for IC50s about 1-2 nM; for Selectivity high ATP CDK9 over high ATP CDK2: IC50 (high ATP CDK2)/IC50 (high ATP CDK9): ratio from Methods 1b and 2b, minimal values for IC50s near the assay limit
T1 construct: Recombinant full-length His-tagged human CDK9 and CycT1; His; purchased Life Technologies PV4131; host or cells: insect cells
T1 sequence (P50750 whole entry): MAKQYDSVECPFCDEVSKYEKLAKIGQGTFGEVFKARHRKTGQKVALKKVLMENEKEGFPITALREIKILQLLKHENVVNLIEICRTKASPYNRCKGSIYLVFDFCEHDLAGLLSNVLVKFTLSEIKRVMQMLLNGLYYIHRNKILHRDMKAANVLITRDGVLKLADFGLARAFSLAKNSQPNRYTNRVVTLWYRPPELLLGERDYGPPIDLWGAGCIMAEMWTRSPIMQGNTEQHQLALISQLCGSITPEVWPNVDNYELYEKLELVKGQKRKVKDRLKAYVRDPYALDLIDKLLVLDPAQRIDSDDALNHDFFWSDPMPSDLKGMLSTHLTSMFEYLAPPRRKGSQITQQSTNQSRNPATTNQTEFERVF
T1 sequence (O60563 whole entry partner): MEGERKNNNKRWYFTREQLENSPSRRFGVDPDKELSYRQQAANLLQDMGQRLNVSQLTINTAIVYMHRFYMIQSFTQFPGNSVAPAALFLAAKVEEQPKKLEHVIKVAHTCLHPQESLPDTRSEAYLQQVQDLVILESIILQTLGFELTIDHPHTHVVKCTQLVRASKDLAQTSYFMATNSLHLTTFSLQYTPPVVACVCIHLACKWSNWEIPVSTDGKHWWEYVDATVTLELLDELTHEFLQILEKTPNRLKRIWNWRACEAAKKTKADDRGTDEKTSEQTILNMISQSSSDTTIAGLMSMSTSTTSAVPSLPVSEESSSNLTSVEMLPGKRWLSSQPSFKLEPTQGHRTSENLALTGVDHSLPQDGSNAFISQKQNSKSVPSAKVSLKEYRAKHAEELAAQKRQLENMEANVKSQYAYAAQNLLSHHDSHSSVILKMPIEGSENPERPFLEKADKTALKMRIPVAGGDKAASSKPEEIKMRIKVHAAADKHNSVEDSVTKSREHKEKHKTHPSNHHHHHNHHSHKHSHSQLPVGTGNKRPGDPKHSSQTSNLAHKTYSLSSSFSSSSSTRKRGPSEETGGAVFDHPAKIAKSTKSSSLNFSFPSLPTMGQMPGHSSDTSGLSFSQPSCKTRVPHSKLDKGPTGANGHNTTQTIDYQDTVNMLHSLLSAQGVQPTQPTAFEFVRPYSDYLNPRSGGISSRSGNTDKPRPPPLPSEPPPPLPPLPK
Protocol: 1b. CDK9/CycT1 High ATP Kinase Assay
CDK9/CycT1-inhibitory activity of compounds of the present invention at a high ATP concentration after preincubation of enzyme and test compounds was quantified employing the CDK9/CycT1 TR-FRET assay as described in the following paragraphs.
Recombinant full-length His-tagged human CDK9 and CycT1, expressed in insect cells and purified by Ni-NTA affinity chromatography, were purchased from Life Technologies (Cat. No PV4131). As substrate for the kinase reaction biotinylated peptide biotin-Ttds-YISPLKSPYKISEG (C-terminus in amide form) was used which can be purchased e.g. form the company JERINI peptide technologies (Berlin, Germany).
(§1) For the assay 50 nl of a 100 fold concentrated solution of the test compound in DMSO was pipetted into either a black low volume 384 well microtiter plate or a black 1536 well microtiter plate (both Greiner Bio-One, Frickenhausen, Germany), 2 μl of a solution of CDK9/CycT1 in aqueous assay buffer [50 mM Tris/HCl pH 8.0, 10 mM MgCl2, 1.0 mM dithiothreitol, 0.1 mM sodium ortho-vanadate, 0.01% (v/v) Nonidet-P40 (Sigma)] were added and the mixture was incubated for 15 min at 22° C. to allow pre-binding of the test compounds to the enzyme before the start of the kinase reaction. […] The concentration of CDK9/CycT1 was adjusted depending of the activity of the enzyme lot and was chosen appropriate to have the assay in the linear range, typical concentrations were in the range of 0.5 μg/ml. The reaction was stopped by the addition of 3 μl of a solution of TR-FRET detection reagents (0.33 μM streptavidine-XL665 [Cisbio Bioassays, Codolet, France] and 1.67 nM anti-RB(pSer807/pSer811)-antibody from BD Pharmingen [#558389] and 2 nM LANCE EU-W1024 labeled anti-mouse IgG antibody [Perkin-Elmer, product no. AD0077]) in an aqueous EDTA-solution (167 mM EDTA, 0.2% (w/v) bovine serum albumin in 100 mM HEPES pH 7.5).
(§2) The resulting mixture was incubated 1 h at 22° C. to allow the formation of complex between the phosphorylated biotinylated peptide and the detection reagents. Subsequently the amount of phosphorylated substrate was evaluated by measurement of the resonance energy transfer from the Eu-chelate to the streptavidine-XL. Therefore, the fluorescence emissions at 620 nm and 665 nm after excitation at 350 nm was measured in a TR-FRET reader, e.g. a Pherastar (BMG Labtechnologies, Offenburg, Germany) or a Viewlux (Perkin-Elmer). The ratio of the emissions at 665 nm and at […] was taken as the measure for the amount of phosphorylated substrate. The data were normalised (enzyme reaction without inhibitor=0% inhibition, all other assay components but no enzyme=100% inhibition).

CDK2/CycE = target: T2, CDK2/CycE (Homo sapiens, UniProt P24941); assay: CDK2/CycE high ATP kinase assay (TR-FRET, 2 mM ATP); type: biochemical; conditions: Method 2b
T2 construct: GST; purchased ProQinase GmbH (Freiburg, Germany); host or cells: insect cells (Sf9)
Protocol: 2b. CDK2/CycE High ATP Kinase Assay
CDK2/CycE-inhibitory activity of compounds of the present invention at 2 mM adenosine-tri-phosphate (ATP) was quantified employing the CDK2/CycE TR-FRET (TR-FRET=Time Resolved Fluorescence Energy Transfer) assay as described in the following paragraphs.
Recombinant fusion proteins of GST and human CDK2 and of GST and human CycE, expressed in insect cells (Sf9) and purified by Glutathion-Sepharose affinity chromatography, were purchase from ProQinase GmbH (Freiburg, Germany). As substrate for the kinase reaction biotinylated peptide biotin-Ttds-YISPLKSPYKISEG (C-terminus in amid form) was used which can be purchased e.g. form the company JERINI peptide technologies (Berlin, Germany).
as §1, with “CDK2/CycE” for “CDK9/CycT1”, “about 10 ng/ml.” for “in the range of 0.5 μg/ml.”, “(0.333” for “(0.33”, “AD0077, as an alternative a Terbium-cryptate-labeled anti-mouse IgG antibody from Cisbio Bioassays can be used])” for “AD0077])”
as §2

Row | Compound | IC50 (A2780 cells; Homo sapiens, A2780, 72 h) | IC50 (CDK9/CycT1) | Selectivity high ATP CDK9 over high ATP CDK2: IC50 (high ATP CDK2)/IC50 (high ATP CDK9) (CDK9/CycT1) | IC50 (CDK2/CycE) | IC50 (A2780 cells)
1 | CSCc1cc2nc(c1)OC(C)CCCOc1cc(ccc1F)-c1cc(ncc1F)N2 (racemic) [Example 11, (rac)-3,20-difluoro-14-methyl-10-[(methylsulfanyl)methyl]-13,18-dioxa-5,7,24-triazatetracyclo[17.3.1.1^2,6.1^8,12]pentacosa-1(23),2(25),3,5,8(24),9,11,19,21-nonaene] | 346 nM | 7 nM | 667 | 4670 nM | 
2 | CC1CCCOc2cc(ccc2F)-c2cc(ncc2F)Nc2cc(CS(C)(=N)=O)cc(n2)O1 (single isomer, unassigned) [Example 14, 3,20-difluoro-14-methyl-10-[(S-methylsulfonimidoyl)methyl]-13,18-dioxa-5,7,24-triazatetracyclo[17.3.1.1^2,6.1^8,12]pentacosa-1(23),2(25),3,5,8(24),9,11,19,21-nonaene] |  | 3 nM | 503 | 1510 nM | 23 nM
3 | CC1CCCOc2cc(ccc2F)-c2cc(ncc2F)Nc2cc(CS(C)(=N)=O)cc(n2)O1 (single isomer, unassigned) [Example 15, 3,20-difluoro-14-methyl-10-[(S-methylsulfonimidoyl)methyl]-13,18-dioxa-5,7,24-triazatetracyclo[17.3.1.1^2,6.1^8,12]pentacosa-1(23),2(25),3,5,8(24),9,11,19,21-nonaene] |  | 3 nM | 540 | 1620 nM | 16 nM
4 | CC1CCCCCOc2cc(ccc2F)-c2cc(ncc2F)Nc2cc(CS(C)(=N)=O)cc(n2)O1 (single isomer, unassigned) [Example 26, 3,22-difluoro-14-methyl-10-[(S-methylsulfonimidoyl)methyl]-13,20-dioxa-5,7,26-triazatetracyclo[19.3.1.1^2,6.1^8,12]heptacosa-1(25),2(27),3,5,8(26),9,11,21,23-nonaene] | 53 nM | 4 nM | 3250 | 13000 nM | 
5 | CC1CCCCCOc2cc(ccc2F)-c2cc(ncc2F)Nc2cc(CS(C)(=N)=O)cc(n2)O1 (single isomer, unassigned) [Example 27, 3,22-difluoro-14-methyl-10-[(S-methylsulfonimidoyl)methyl]-13,20-dioxa-5,7,26-triazatetracyclo[19.3.1.1^2,6.1^8,12]heptacosa-1(25),2(27),3,5,8(26),9,11,21,23-nonaene] |  | 5 nM | 544 | 2720 nM | 102 nM
6 | CC1CCCCOc2cc(ccc2F)-c2cc(ncc2F)Nc2cc(CS(C)(=O)=O)cc(n2)O1 (single isomer, unassigned) [Example 29, 3,21-difluoro-14-methyl-10-[(methylsulfonyl)methyl]-13,19-dioxa-5,7,25-triazatetracyclo[18.3.1.1^2,6.1^8,12]hexacosa-1(24),2(26),3,5,8(25),9,11,20,22-nonaene] |  | 4 nM | 173 | 691 nM | 25 nM
7 | CC1CCCCOc2cc(ccc2F)-c2cc(ncc2F)Nc2cc(CS(C)(=O)=O)cc(n2)O1 (single isomer, unassigned) [Example 30, 3,21-difluoro-14-methyl-10-[(methylsulfonyl)methyl]-13,19-dioxa-5,7,25-triazatetracyclo[18.3.1.1^2,6.1^8,12]hexacosa-1(24),2(26),3,5,8(25),9,11,20,22-nonaene] |  | 3 nM | 1196 | 3590 nM | 55 nM

Reference: US11254690B2, “PTEFb inhibiting macrocyclic compounds” (BAYER AKTIENGESELLSCHAFT, priority 2017, dated 2022)
